One data set has as its target hD2 receptors (Homo sapiens (Human), UniProt P14416). As to the kind of experiment: D2 mediated cAMP GloSensor assay. For cAMP (GloSensor) activity in words (merged EC50/Emax cell): key: neutral: Neutral ligands are either antagonists or are inactive. The note with it: for Emax: normalized to quinpirole, negative = inverse agonist, read-out: cAMP (GloSensor) Emax; for EC50: HEK293T, isoproterenol-stimulated cAMP. In kind it is cell-based.
Data set [1] has as its target T1, D2 receptors (Homo sapiens (Human), UniProt P14416). Put plainly: D2 β-arrestin recruitment (Tango) assay. It counts as cell-based. The note with it: for Emax: normalized to quinpirole (100%). As to the method: The next day, cells were plated in white, clear-bottom, 384-well plates (Greiner, 10,000 cells/well, 50 μl/well) in DMEM containing 1% dialyzed fetal bovine serum. […] Data were normalized to vehicle (0%) and quinpirole (100%) controls and regressed using the sigmoidal dose-response function built into GraphPad Prism 4.0.
Target sequence in this assay (P14416 whole entry, looked up): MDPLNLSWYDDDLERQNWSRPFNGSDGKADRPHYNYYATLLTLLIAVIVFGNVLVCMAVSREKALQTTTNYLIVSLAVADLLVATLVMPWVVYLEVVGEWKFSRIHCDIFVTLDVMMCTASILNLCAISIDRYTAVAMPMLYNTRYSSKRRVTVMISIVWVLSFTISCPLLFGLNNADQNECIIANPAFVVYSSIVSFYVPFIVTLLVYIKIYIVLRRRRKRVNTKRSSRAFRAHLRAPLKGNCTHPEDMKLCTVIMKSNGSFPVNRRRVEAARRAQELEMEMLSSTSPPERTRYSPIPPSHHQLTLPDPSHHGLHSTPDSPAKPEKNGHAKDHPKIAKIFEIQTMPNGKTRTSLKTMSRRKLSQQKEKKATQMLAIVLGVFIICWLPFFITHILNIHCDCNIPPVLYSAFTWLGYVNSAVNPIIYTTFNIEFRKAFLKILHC
A general note: Activated receptors often draw arrestin, which recruitment assays turn into a signal.

Data set [2] has as its target T1, D2 receptors. Put plainly: CHO-D2 radioligand binding assay ([3H]N-methylspiperone competition). To be noted: CHO-D2 membranes, [3H]N-methylspiperone; read-out: D2 Binding Ki ± SEM.
Target sequence in this assay (P14416 whole entry): as the sequence (P14416 whole entry, looked up) above
A short description of the next data set: in vivo. The note with it: mouse.
Setting [3] is: HTLA cells, read-out: β-arrestin (Tango) EC50.

The values below come from patent US9156822B2, “Functionally selective ligands of dopamine D2 receptors” (The University of North Carolina at Chapel Hill, priority 2010, dated 2015).

One may read the EC50 as the midpoint of the concentration-response curve. As a reminder, the Emax is the maximal effect, on the per cent scale that the assay sets. The term Ki denotes the equilibrium dissociation constant of an inhibitor or competing ligand from its target. A word on the melting point: it is the temperature, or range, at which the solid turns liquid. As a reminder, the AUC(0-inf) is the area under the concentration-time curve extrapolated to infinity. Read a low AUC(0-inf) as less exposure. As usually defined, the AUC(0-t) is the area under the concentration-time curve up to a stated or last time point. Low values mean less exposure, high ones more exposure. By Cmax is commonly meant the peak of the concentration-time curve. Usually Tmax stands for the time at which the peak concentration occurs.

Read-outs that look alike come from different tables or passages of the source.

hD2 receptors, sequence (P14416 whole entry): as the sequence (P14416 whole entry, looked up) above

For `CCOc1ccccc1N1CCCN(CCCCOc2ccc3c(c2)NC(=O)CC3)CC1` [Compound 12, 7-(4-(4-(2-ethoxyphenyl)-1,4-diazepan-1-yl)butoxy)-3,4-dihydroquinolin-2(1H)-one], the “cAMP (GloSensor) activity in words (merged EC50/Emax cell)” value (from here on “cAMP … (merged EC50/Emax cell)”) at hD2 receptors was “neutral”. Moreover, at D2 receptors [1] (setting [3]), the EC50 came to 4.3 nM. On D2 receptors [1], the Emax turned out to be 41%. Also, on D2 receptors [2], the Ki is 4.1 ± 0.2 nM.
Regarding `O=C1CCc2ccc(OCCCN3CCCN(c4cccc(Cl)c4Cl)CC3)cc2N1` [Compound 1, 7-(3-(4-(2,3-dichlorophenyl)-1,4-diazepan-1-yl)propoxy)-3,4-dihydroquinolin-2(1H)-one], the melting point was 130 to 131 °C.
For `CCOc1ccccc1N1CCCN(CCCCOc2ccc3c(n2)NC(=O)CC3)CC1` [Compound 13, 7-(4-(4-(2-ethoxyphenyl)-1,4-diazepan-1-yl)butoxy)-3,4-dihydro-1,8-naphthyridin-2(1H)-one], the “cAMP … (merged EC50/Emax cell)” value on hD2 receptors is given as “neutral”. In addition, the EC50 at D2 receptors [1] (setting [3]) came out at 4 nM. The Emax at D2 receptors [1] came to 43%. In addition, on D2 receptors [2], the inhibition constant Ki is 4.4 ± 0.3 nM.
As for `O=C1CCc2ccc(OCCCCN3CCN(c4cccc(Cl)c4Cl)CC3)cc2N1` [Aripiprazole, aripiprazole, reference compound], in “in vivo” (brain), the AUC(0-inf) was found to be 1180 ng·h/mL, the AUC(0-t) amounted to 1100 ng·h/mL, the Cmax came out at 166 ng/mL and the time of peak concentration (Tmax) worked out at 30 min. Also, in “in vivo” (plasma), the AUC(0-inf) worked out at 445 ng·h/mL, the AUC(0-t) was 431 ng·h/mL, the highest level (Cmax) was 75.6 ng/mL and the Tmax was 15 min.
In the case of `COc1ccccc1N1CCCN(CCCCOc2ccc3c(n2)NC(=O)CC3)CC1` [Compound 11, 7-(4-(4-(2-methoxyphenyl)-1,4-diazepan-1-yl)butoxy)-3,4-dihydro-1,8-naphthyridin-2(1H)-one], the Emax on hD2 receptors was -118%; on D2 receptors [1], 21%.
With `COc1ccccc1N1CCN(CCCCOc2ccc3c(n2)NC(=O)CC3)CC1` [Compound 37], at hD2 receptors, the response was half-maximal at 11 nM (EC50) and the Emax was 17%. At D2 receptors [1], the EC50 was determined as 1 nM and the Emax was 67%. For the same molecule, the Ki on D2 receptors [2] was 1.7 ± 0.1 nM.
The molecule `O=c1[nH]c2ccc(OCCCCN3CCC(c4cccc(Cl)c4Cl)CC3)cc2[nH]1` [Compound 24, 5-(4-(4-(2,3-dichlorophenyl)piperidin-1-yl)butoxy)-1H-benzo[d]imidazol-2(3H)-one] gave a melting point of 180 to 182 °C.
For `CC(C)Oc1ccccc1N1CCCN(CCCCOc2ccc3ccc(=O)[nH]c3c2)CC1` [Compound 18, 7-(4-(4-(2-isopropoxyphenyl)-1,4-diazepan-1-yl)butoxy)quinolin-2(1H)-one], the EC50 on hD2 receptors turned out to be 0.1 nM; at D2 receptors [1] (setting [3]) it was 4.2 nM. Besides, the Emax was 32% on hD2 receptors and 58% at D2 receptors [1]. Besides, at D2 receptors [2], the Ki was found to be 0.93 ± 0.03 nM.
The like results for `COc1ccccc1N1CCCN(CCCCOc2ccc3c(c2)NC(=O)CC3)CC1` [Compound 9, 7-(4-(4-(2-methoxyphenyl)-1,4-diazepan-1-yl)butoxy)-3,4-dihydroquinolin-2(1H)-one] were, in that order, 163 nM, 4.6 nM, -63%, 26% and 4 nM.
Consider `CC(C)Oc1ccccc1N1CCCN(CCCCOc2ccc3c(c2)NC(=O)CC3)CC1` [Compound 16, 7-(4-(4-(2-isopropoxyphenyl)-1,4-diazepan-1-yl)butoxy)-3,4-dihydroquinolin-2(1H)-one], for which the “cAMP … (merged EC50/Emax cell)” value at hD2 receptors was “neutral”. On D2 receptors [1] (setting [3]), the EC50 was found to be 4.2 nM. Further, the Emax on D2 receptors [1] is 53%. Moreover, the Ki at D2 receptors [2] stood at 0.87 ± 0.04 nM.
For `O=C1CCc2ccc(Oc3ccc(CN4CCN(c5cccc(Cl)c5Cl)CC4)cc3)cc2N1` [Compound 31, 7-(4-((4-(2,3-dichlorophenyl)piperazin-1-yl)methyl)phenoxy)-3,4-dihydro quinolin-2(1H)-one], at hD2 receptors, the EC50 came to 5.7 nM and the Emax was -47%. Further, on D2 receptors [1], the “β-arrestin (Tango) % activ at 1 μM” value turned out to be 16% and the Emax came to 49%. Also, on D2 receptors [1] (setting [3]), the 50% effective concentration (EC50) worked out at 399 nM. In addition, the Ki at D2 receptors [2] was determined as 108 ± 18 nM.
Take `O=C1CCc2ccc(OCC3CCC(CN4CCN(c5cccc(Cl)c5Cl)CC4)CC3)cc2N1` (stereo not shown) [Compound 26, 7-((4-((4-(2,3-dichlorophenyl)piperazin-1-yl)methyl)cyclohexyl)methoxy)-3,4-dihydroquinolin-2(1H)-one]: at hD2 receptors, the EC50 was 46000 nM and the Emax is -25%. Moreover, on D2 receptors [1], the “β-arrestin (Tango) % activ at 1 μM” value was determined as 6% and the Emax amounted to 51%. Besides, at D2 receptors [1] (setting [3]), the EC50 came out at 2100 nM. In addition, the Ki at D2 receptors [2] was 145 ± 22 nM.
With `CCOc1ccccc1N1CCCN(CCCCOc2ccc3ccc(=O)[nH]c3c2)CC1` [Compound 14, 7-(4-(4-(2-ethoxyphenyl)-1,4-diazepan-1-yl)butoxy)quinolin-2(1H)-one], the Emax on D2 receptors [1] came out at 58%.
For `Clc1cccc(N2CCN(CCCCOc3ccc4cn[nH]c4c3)CC2)c1Cl` [Compound 28, 6-(4-(4-(2,3-dichlorophenyl)piperazin-1-yl)butoxy)-1H-indazole], on hD2 receptors, the EC50 is 5.7 nM and the Emax was -29%. Also, at D2 receptors [1], the “β-arrestin (Tango) % activ at 1 μM” value came out at 18% and the Emax turned out to be 65%. The EC50 on D2 receptors [1] (setting [3]) came to 92 nM. At D2 receptors [2], the Ki came out at 66 ± 10 nM.
Consider `O=C1NCCc2ccc(OCCCN3CCN(c4cccc(Cl)c4Cl)CC3)cc21` [Compound 32, 7-(3-(4-(2,3-dichlorophenyl)piperazin-1-yl)propoxy)-3,4-dihydroisoquinolin-1(2H)-one], for which the “cAMP … (merged EC50/Emax cell)” value at hD2 receptors is recorded as “neutral”. At D2 receptors [1], the “β-arrestin (Tango) % activ at 1 μM” value came to 44% and the Emax was found to be 83%. Moreover, the EC50 at D2 receptors [1] (setting [3]) is 30 nM. Further, on D2 receptors [2], the Ki was 18 ± 2 nM.
For the molecule `O=C1CCc2ccc(OCCCCN3CCN(c4cccc5c4OCCO5)CC3)cc2N1` [Compound 40, 7-(4-(4-(2,3-dihydrobenzo[b][1,4]dioxin-5-yl)piperazin-1-yl)butoxy)-3,4-dihydroquinolin-2(1H)-one], on hD2 receptors, the “cAMP … (merged EC50/Emax cell)” value is given as “neutral”. Besides, the EC50 at D2 receptors [1] (setting [3]) came out at 1.5 nM. In addition, on D2 receptors [1], the Emax came out at 33%. For the same molecule, on D2 receptors [2], the Ki was 0.3 ± 0.02 nM.
`O=C1NCCc2ccc(OCCCCN3CCN(c4cccc(Cl)c4Cl)CC3)cc21` [Compound 25, 7-(4-(4-(2,3-dichlorophenyl)piperazin-1-yl)butoxy)-3,4-dihydroisoquinolin-1(2H)-one]: at hD2 receptors, the midpoint of the response, the EC50, lay at 3700 nM and the Emax was -74%. At D2 receptors [1], the “β-arrestin (Tango) % activ at 1 μM” value came to 12% and the Emax amounted to 55%. Moreover, the EC50 on D2 receptors [1] (setting [3]) is 18 nM. Further, the Ki at D2 receptors [2] worked out at 18 ± 3 nM.
Consider `O=c1[nH]c2ccc(OCCCN3CCN(c4cccc(Cl)c4Cl)CC3)cc2[nH]1` [Compound 34, 5-(3-(4-(2,3-dichlorophenyl)piperazin-1-yl)propoxy)-1H-benzo[d]imidazol-2(3H)-one], for which, at hD2 receptors, the EC50 was determined as 512 nM and the Emax was 25%. On D2 receptors [1], the EC50 was determined as 52 nM, the “β-arrestin (Tango) % activ at 1 μM” value was 36% and the Emax was determined as 78%. The Ki at D2 receptors [2] is 25 ± 3 nM.
For `O=c1[nH]c2ccc(OCCCCN3CCN(c4cccc(Cl)c4Cl)CC3)cc2[nH]1` [Compound 35], the “cAMP … (merged EC50/Emax cell)” value at hD2 receptors is listed as “neutral”. For the same molecule, on D2 receptors [1], the “β-arrestin (Tango) % activ at 1 μM” value is listed as 19%. Moreover, on D2 receptors [1] (setting [3]), the EC50 stood at 16 nM. In addition, the Ki on D2 receptors [2] is 15 ± 3 nM.
For the molecule `O=C1CCc2ccc(OCCCCN3CCN(c4cccc5c4OCCO5)CC3)nc2N1` [Compound 41, 7-(4-(4-(2,3-dihydrobenzo[b][1,4]dioxin-5-yl)piperazin-1-yl)butoxy)-3,4-dihydro-1,8-naphthyridin-2(1H)-one], the results for the EC50 at hD2 receptors and at D2 receptors [1] (setting [3]) were 0.4 nM and 0.6 nM, respectively. Besides, the Emax is -19% on hD2 receptors and 31% at D2 receptors [1]. For the same molecule, the inhibition constant (Ki) on D2 receptors [2] came to 0.45 ± 0.02 nM.
Regarding `CC(=O)Nc1cc(OCCCCN2CCN(c3cccc(Cl)c3Cl)CC2)ccc1C` [Compound 43, N-(5-(4-(4-(2,3-dichlorophenyl)piperazin-1-yl)butoxy)-2-methylphenyl)acetamide], the “cAMP … (merged EC50/Emax cell)” value on hD2 receptors is listed as “neutral”. For the same molecule, the EC50 on D2 receptors [1] (setting [3]) was found to be 9.2 nM. The Emax on D2 receptors [1] was found to be 59%. Also, the inhibitory constant (Ki) at D2 receptors [2] was determined as 72 ± 4 nM.
As to `CC(C)Oc1ccccc1N1CCCN(CCCCOc2ccc3c(n2)NC(=O)CC3)CC1` [Compound 17, 7-(4-(4-(2-isopropoxyphenyl)-1,4-diazepan-1-yl)butoxy)-3,4-dihydro-1,8-naphthyridin-2(1H)-one], the values for the EC50 on hD2 receptors and on D2 receptors [1] (setting [3]) were 0.2 nM and 4.6 nM, respectively. Moreover, the Emax amounted to 18% on hD2 receptors and 56% at D2 receptors [1]. Moreover, the Ki at D2 receptors [2] was found to be 1.29 ± 0.03 nM.
`Clc1cccc(N2CCCN(CCCCOc3ccc4scnc4c3)CC2)c1Cl` [Compound 7, 5-(4-(4-(2,3-dichlorophenyl)-1,4-diazepan-1-yl)butoxy)benzo[d]thiazole] returned a melting point of 82 to 84 °C.
Still for that read-out and setting: the figure for `O=C1NCCc2ccc(OCCCCN3CCCN(c4cccc(Cl)c4Cl)CC3)cc21` [Compound 6, 7-(4-(4-(2,3-dichlorophenyl)-1,4-diazepan-1-yl)butoxy)-3,4-dihydroisoquinolin-1(2H)-one] is 86 to 88 °C.
With `COc1ccccc1N1CCCN(CCCCOc2ccc3ccc(=O)[nH]c3c2)CC1` [Compound 10, 7-(4-(4-(2-methoxyphenyl)-1,4-diazepan-1-yl)butoxy)quinolin-2(1H)-one], the Emax on D2 receptors [1] was 16%.
